19 compounds from patent US4804656A, “Novel androstane-17β-carboxylic acid esters” (Aktiebolaget Draco, priority 1985, dated 1989) can be followed below.

The target of this test is T1, glucocorticoid receptor (Rattus norvegicus, UniProt P06536).
T1 construct: The thymus was removed and put into ice-cold saline; The tissue was homogenized in a Potter Elvehjem homogenizer; from tissue; host or cells: thymus of male Sprague-Dawley rats, 20,000×g supernatant of homogenate
T1 sequence (P06536 1-795): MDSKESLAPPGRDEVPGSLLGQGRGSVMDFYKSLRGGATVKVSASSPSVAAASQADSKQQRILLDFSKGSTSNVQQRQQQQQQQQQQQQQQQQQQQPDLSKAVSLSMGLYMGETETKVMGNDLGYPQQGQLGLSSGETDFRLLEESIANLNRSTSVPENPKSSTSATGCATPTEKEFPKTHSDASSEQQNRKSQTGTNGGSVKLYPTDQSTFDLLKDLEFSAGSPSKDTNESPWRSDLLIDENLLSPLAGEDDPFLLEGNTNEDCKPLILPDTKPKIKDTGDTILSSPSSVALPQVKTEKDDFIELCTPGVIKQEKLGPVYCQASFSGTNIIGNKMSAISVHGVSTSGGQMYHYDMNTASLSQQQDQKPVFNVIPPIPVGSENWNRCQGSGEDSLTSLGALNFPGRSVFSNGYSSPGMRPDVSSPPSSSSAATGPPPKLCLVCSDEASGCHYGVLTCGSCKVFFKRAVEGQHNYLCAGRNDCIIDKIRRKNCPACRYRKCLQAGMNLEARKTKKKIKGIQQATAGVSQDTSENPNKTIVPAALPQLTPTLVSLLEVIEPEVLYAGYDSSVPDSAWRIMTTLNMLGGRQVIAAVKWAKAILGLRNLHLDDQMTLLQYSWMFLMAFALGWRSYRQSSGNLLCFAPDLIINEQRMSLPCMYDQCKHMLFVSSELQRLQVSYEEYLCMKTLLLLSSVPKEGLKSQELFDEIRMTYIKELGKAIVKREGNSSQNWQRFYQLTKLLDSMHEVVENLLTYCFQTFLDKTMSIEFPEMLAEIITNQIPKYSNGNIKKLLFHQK
Description: Affinity to the glucocorticoid receptor: competition with 3H-labelled dexamethasone in rat thymus 20,000×g supernatant. The settings on record: curves compared at the 50% specific binding level, referenced to budesonide = 1, 3 nM 3H-dexamethasone, about 24 h at 0° C. As for the experimental part: All steroids according to the present invention are physiologically active compounds. The affinity of the novel androstane-17β-carboxylic acid esters to the glucocorticoid receptor has been used as a model for determination of the anti-inflammatory potency.
Male Sprague-Dawley rats, one to two months of age, were used throughout the investigation. The thymus was removed and put into ice-cold saline. The tissue was homogenized in a Potter Elvehjem homogenizer in 10 ml of a buffer containing 20 mM Tris, pH 7.4, 10% (w/v) glycerol, 1 mM EDTA, 20 mM NaMoO4, 10 mM mercaptoethanol. The homogenate was centrifuged for 15 min at 20,000×g. Portions of the 20,000×g supernatant (230 μl) were incubated for about 24 h at 0° C. with 100 μl phenylmethylsulphonylfluoride (an esterase inhibitor, final conc. 0.5 mM), 20 μl unlabelled competitor and 50 μl ^3 H-labelled dexamethasone (final conc. 3 nM). Bound and free steroid were separated by incubating the mixture with 60 μl 2.5% (w/v) charcoal and 0.25% (w/v) dextran T70 suspension in […], pH 7.4, 1 mM EDTA, and […] for 10 min at 0° C. Following a centrifugation at 500×g for 10 min, 230 μl of the supernatant was counted in 10 ml Insta-Gel in a Packard scintillation spectrophotometer. The supernatants were incubated with a) [^3 H]dexamethasone alone, b) [^3 H] dexamethasone plus 1000 fold excess of unlabelled dexamethasone and c) [^3 H] dexamethasone plus 0.03-300 fold "excess" competitor. The nonspecific binding was determined when 1000 fold excess of unlabelled dexamethasone was added to [^3 H]-labelled dexamethasone.
The radioactivity bound to the receptor in the presence of competitor divided by the radioactivity bound to the receptor in the absence of competitor multiplied by 100 gives the percentage specific binding of labelled dexamethasone. For each concentration of a competitor the percentage specifically bound radioactivity is plotted against the log of concentration of competitor. The curves are compared at the 50% specific binding level and reference to budesonide, which is assigned a relative binding affinity (RBA) of 1.

As for `CCOC(=O)OC(C)OC(=O)[C@@]1(OC(=O)CC)[C@@H](C)C[C@H]2[C@@H]3CCC4=CC(=O)C=C[C@]4(C)[C@@]3(F)[C@@H](O)C[C@@]21C` (single isomer, unassigned) [1 (epimer B), 1'-ethoxycarbonyloxyethyl 9α-fluoro-11β-hydroxy-16β-methyl-3-oxo-17α-propionyloxyandrosta-1,4-diene-17β-carboxylate], the “RBA (relative binding affinity)” value came out at 0.80.
As to `CCC(=O)O[C@]1(C(=O)OC(C)OC(=O)NC(C)C)[C@@H](C)C[C@H]2[C@@H]3CCC4=CC(=O)C=C[C@]4(C)[C@@]3(F)[C@@H](O)C[C@@]21C` (single isomer, unassigned) [2 (epimer B), 1'-isopropylcarbamoyloxyethyl 9α-fluoro-11β-hydroxy-16β-methyl-3-oxo-17α-propionyloxyandrosta-1,4-diene-17β-carboxylate], the “RBA (relative binding affinity)” value is given as 0.14.
As to `CCCCC(=O)O[C@]1(C(=O)OC(C)OC(=O)N(CC)CC)[C@@H](C)C[C@H]2[C@@H]3CCC4=CC(=O)C=C[C@]4(C)[C@@]3(F)[C@@H](O)C[C@@]21C` (single isomer, unassigned) [3 (epimer B), 1'-diethylcarbamoyloxyethyl 9αfluoro-11β-hydroxy-16β-methyl-3-oxo-17α-valeroyloxyandrosta-1,4-diene-17β-carboxylate], the “RBA (relative binding affinity)” value is reported as 0.47.
Under `CCC(=O)O[C@]1(C(=O)OC(C)OC(C)=O)[C@@H](C)C[C@H]2[C@@H]3CCC4=CC(=O)C=C[C@]4(C)[C@@]3(F)[C@@H](O)C[C@@]21C` (single isomer, unassigned) [4 (epimer B), 1'-acetyloxyethyl 9α-fluoro-11β-hydroxy-16β-methyl-3-oxo-17α-propionyloxyandrosta-1,4-diene-17β-carboxylate] stands 0.69.
Regarding `CCC(=O)O[C@]1(C(=O)OC(C)OC(=O)OCc2ccc([N+](=O)[O-])cc2)[C@@H](C)C[C@H]2[C@@H]3CCC4=CC(=O)C=C[C@]4(C)[C@@]3(F)[C@@H](O)C[C@@]21C` (single isomer, unassigned) [Example 19b], the “RBA (relative binding affinity)” value worked out at 0.53.
For the compound `CCOC(=O)OC(C)OC(=O)[C@@]1(OC(=O)CC)[C@H](C)C[C@H]2[C@@H]3C[C@H](F)C4=CC(=O)C=C[C@]4(C)[C@@]3(F)[C@@H](O)C[C@@]21C` (single isomer, unassigned) [Example 26b], the “RBA (relative binding affinity)” value came out at 0.45.
`CCC(=O)O[C@]1(C(=O)OC(C)OC(=O)OC)[C@@H](C)C[C@H]2[C@@H]3CCC4=CC(=O)C=C[C@]4(C)[C@@]3(F)[C@@H](O)C[C@@]21C` (stereo partly shown) [Example 6b]: the “RBA (relative binding affinity)” value was 0.42.
In the case of `CCCOC(=O)OC(C)OC(=O)[C@@]1(OC(=O)CC)[C@@H](C)C[C@H]2[C@@H]3CCC4=CC(=O)C=C[C@]4(C)[C@@]3(F)[C@@H](O)C[C@@]21C` (stereo partly shown) [Example 7b] it was 0.95.
As to `CCC(=O)O[C@]1(C(=O)OC(C)OC(=O)OC(C)C)[C@@H](C)C[C@H]2[C@@H]3CCC4=CC(=O)C=C[C@]4(C)[C@@]3(F)[C@@H](O)C[C@@]21C` (stereo partly shown) [Example 8b], the “RBA (relative binding affinity)” value stood at 1.50.
With `C=CCOC(=O)OC(C)OC(=O)[C@@]1(OC(=O)CC)[C@@H](C)C[C@H]2[C@@H]3CCC4=CC(=O)C=C[C@]4(C)[C@@]3(F)[C@@H](O)C[C@@]21C` (stereo partly shown) [Example 9b], the “RBA (relative binding affinity)” value came out at 0.39.
Take `CCC(=O)O[C@]1(C(=O)OC(C)OC(=O)OCC(C)C)[C@@H](C)C[C@H]2[C@@H]3CCC4=CC(=O)C=C[C@]4(C)[C@@]3(F)[C@@H](O)C[C@@]21C` (stereo partly shown) [Example 10b]: the “RBA (relative binding affinity)” value was 0.82.
Under `CCC(=O)O[C@]1(C(=O)OC(C)OC(=O)OC2CCC2)[C@@H](C)C[C@H]2[C@@H]3CCC4=CC(=O)C=C[C@]4(C)[C@@]3(F)[C@@H](O)C[C@@]21C` (stereo partly shown) [Example 13b] stands 1.3; under `CCC(=O)O[C@]1(C(=O)OC(C)OC(=O)OC2CCCC2)[C@@H](C)C[C@H]2[C@@H]3CCC4=CC(=O)C=C[C@]4(C)[C@@]3(F)[C@@H](O)C[C@@]21C` (stereo partly shown) [Example 14b], 1.2; under `CCC(=O)O[C@]1(C(=O)OC(C)OC(=O)OC2CCCCC2)[C@@H](C)C[C@H]2[C@@H]3CCC4=CC(=O)C=C[C@]4(C)[C@@]3(F)[C@@H](O)C[C@@]21C` (stereo partly shown) [Example 15b], 0.54.
`C=C(C)COC(=O)OC(C)OC(=O)[C@@]1(OC(=O)CC)[C@@H](C)C[C@H]2[C@@H]3CCC4=CC(=O)C=C[C@]4(C)[C@@]3(F)[C@@H](O)C[C@@]21C` (stereo partly shown) [Example 16b]: the “RBA (relative binding affinity)” value was 0.51.
Regarding `CCCCC(=O)O[C@]1(C(=O)OC(C)OC(=O)OC(C)C)[C@@H](C)C[C@H]2[C@@H]3CCC4=CC(=O)C=C[C@]4(C)[C@@]3(F)[C@@H](O)C[C@@]21C` (stereo partly shown) [Example 22b], the “RBA (relative binding affinity)” value amounted to 0.77.
As for `CCOC(=O)OC(C)OC(=O)[C@@]1(OC(=O)CC)[C@H](C)C[C@H]2[C@@H]3CCC4=CC(=O)C=C[C@]4(C)[C@@]3(F)[C@@H](O)C[C@@]21C` (stereo partly shown) [Example 24b], the “RBA (relative binding affinity)” value was found to be 0.55.
In the case of `CCOC(=O)OC(C)OC(=O)[C@@]1(OC(=O)CC)[C@@H](C)C[C@H]2[C@@H]3CCC4=CC(=O)C=C[C@]4(C)[C@@]3(Cl)[C@@H](O)C[C@@]21C` (stereo partly shown) [Example 28b], the “RBA (relative binding affinity)” value is 1.0.
As to `CCC(=O)O[C@]1(C(=O)OC(C)OC(=O)OCC2CC2)[C@@H](C)C[C@H]2[C@@H]3CCC4=CC(=O)C=C[C@]4(C)[C@@]3(Cl)[C@@H](O)C[C@@]21C` (stereo partly shown) [Example 32b], the “RBA (relative binding affinity)” value stood at 0.86.
